The text below walks through data of patent US5053216A, “Radioactive Jomol, its derivatives, processes for the production of these compounds, their use and product” (priority 1985, dated 1991).

The format of data set [1] is physicochemical. The note with it: acid environment / stomach.
The conditions of data set [2]: human body; cited from earlier work.

`O=Cc1ccc2c(c1)OCC(=O)N1CCOCCOCCN(CCOCCOCC1)C(=O)CO2` [CE]: in data set [1], the “removal of bound radium” value is on record as “instable in the stomach, stable in the rest of the body”.

On to `CO` [Methanol], for which the “rate of metabolism versus ethanol” value in data set [2] is given as “substantially more slowly”.
